Patent publication US4851411A, “5-monoaryl as.-triazin-3-ones substituted in 2-position, and their use as medicaments” (Pierre Fabre Medicament, priority 1986, dated 1989)

How the values were obtained:
[1] = Toxicity study in the mouse, oral single dose (LD50); type: in vivo; details: for toxicity: summary in conclusion
Method: The toxicity study was carried out in the conventional mouse, weighing about 20 g.
The substances were administered orally in a single dose of 300 and 1000 mg/kg respectively. At these doses we were not able to determine the LD50 's which are higher >1000 mg/kg.

[2] = Anxiolytic activity, group of tests (LAB-X elevated plus-maze, SKINNER, VOGEL); type: in vivo, rat; details: 30 mg/kg by mouth
From the text: These compounds were also studied in order to test for anxiolytic activity using a group of tests
(Ref.: LAB-X: Sh. Pellow, Ph. Chopin, S. E. File and M. Briley--Validation of open:closed arm entries in an elevated plus-maze as a measure of anxiety in the rat (Journal of Neuroscience Methods, 14 (1983), 149-167)
SKINNER: GELLER and SEIFTER, Psychopharmacologia (1960) 1, 482-492

[3] = test system: 5 HTP; assay: Potentialization of 5 HTP; type: in vivo
From the text: The tests used for the pharmacological screening are:
the potentialization of 5 HTP (Ref.: Christensen, A. V. et al., Eur. J. of Pharm. (1977), 41, 153-162)

[4] = Solubility; type: physicochemical

Structure (SMILES) | toxicity [1] | anxiolytic activity [2] | ED50 [3] [mg/kg] | solubility in chloroform [4] | solubility in methylene chloride [4] | solubility in water [4] | solubility in alcohols ([4]; alcohols) | solubility in acetic acid [4] | also measured
COc1ccc(-c2cnn(CC(C)=O)c(=O)n2)cc1 [Example 1, 2-acetonyl 3-oxo 5-p-methoxyphenyl ax.-triazine] | very low toxicity | significant results | 25 | – | – | – | – | – | LD50 ([1]; in vivo, mouse, oral, single dose): > 3000 mg/kg
COc1ccc(-c2cnn(C(C)C(C)=O)c(=O)n2)cc1 (stereo not drawn) [Example 4, 2-alpha-methylacetonyl 3-oxo 5-p-methoxyphenyl as.-triazine] | very low toxicity | significant results | 35 | Soluble | Soluble | insoluble | – | – | –
CC(=O)COc1ccc(-c2cnn(C)c(=O)n2)cc1 [Example 9, 2-methyl 3-oxo 5-p-acetonoxyphenyl as.-triazine] | – | significant results | 40 | insoluble | Soluble | insoluble | – | – | solubility in aqueous dilute acids ([4]; aqueous dilute acids): Soluble
COc1ccc(-c2cnn(C3CCOC3=O)c(=O)n2)cc1 (stereo not drawn) [Example 21, 2-γ-butyrolactone 3-oxo 5-p-methoxyphenyl as.-triazine] | very low toxicity | significant results | 27 | Soluble | Soluble | insoluble | poorly soluble | – | solubility in benzene ([4]; benzene): poorly soluble
CC(C)C(=O)Cn1ncc(-c2ccccc2)nc1=O [Example 22, 2-(3-methyl-2-one butyl) 5-phenyl as.-triazine] | – | significant results | – | Soluble | Soluble | insoluble | – | – | solubility in alcohols in the hot ([4]; alcohols, in the hot): soluble
COc1ccccc1-c1cnn(CC(C)=O)c(=O)n1 [Example 23, 2-acetonyl 3-oxo 5-o-methoxyphenyl as.-triazine] | – | – | 50 | Soluble | Soluble | insoluble | – | – | solubility in ether [4]: insoluble
COc1ccc(-c2cnn(CC(N)=O)c(=O)n2)cc1 [Example 32, 2-N-acetamido 3-oxo 5-p-methoxyphenyl as.-triazine] | very low toxicity | – | 20 | Insoluble | – | Insoluble | Insoluble | – | solubility in ether [4]: Insoluble
COc1ccc(-c2cnn(CC(=O)c3ccccc3)c(=O)n2)cc1 [Example 37, 2-Phenacyl 3-oxo 5-p.methoxyphenyl as triazine] | – | – | – | – | – | insoluble | – | Soluble | –
COc1ccc(-c2cnn(CC(=O)c3ccc(C)cc3)c(=O)n2)cc1 [Example 38, 2-p.methylphenacyl 3-oxo 5-p.methoxyphenyl as triazine] | – | – | – | – | – | Insoluble | Insoluble | Soluble | –
COc1ccc(-c2cnn(CC(=O)c3ccc(Cl)cc3Cl)c(=O)n2)cc1 [Example 39, 2-(dichloro-2,4 phenacyl) 3-oxo 5-p.methoxyphenyl as triazine] | – | – | – | – | – | Insoluble | Insoluble | Soluble | –
COc1ccc(C(=O)Cn2ncc(-c3ccc(OC)cc3)nc2=O)cc1 [Example 40, 2-p.methoxyphenacyl 3-oxo 5-p.methoxyphenyl as triazine] | – | – | – | – | – | Insoluble | Insoluble | Insoluble | –
CCC(=O)Cn1ncc(-c2ccc(OC)cc2)nc1=O [Example 41, 2-(oxo-2' butyl) 3-oxo 5-p.methoxyphenyl as triazine] | – | – | – | – | – | Insoluble | Insoluble | Soluble | –
